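Following 48 hours of exposure in 96-well plates, responses at five concentrations were used to interpolate endpoints linearly. GI50 marks 50% less growth.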 Activity calls are given as the source filed them. Cut-off read from the data, not from the text of the source: active = GI50 up to about 1.1 µM and inactive = higher.
Tests used:
Assay in all cases: DTP human tumour cell line panel, 48 h
RPMI-8226 = tested on: RPMI-8226
A498 = tested on: A498
SF-268 = tested on: SF-268
MDA-MB-231 = tested on: MDA-MB-231
UACC-257 = tested on: UACC-257
UACC-62 = tested on: UACC-62
SN12C = tested on: SN12C
HCT-116 = tested on: HCT-116
OVCAR-8 = tested on: OVCAR-8
UO-31 = tested on: UO-31
HCC 2998 = tested on: HCC 2998
KM12 = tested on: KM12
NCI-H460 = tested on: NCI-H460
HL-60 = tested on: HL-60
Malme-3M = tested on: Malme-3M
LOX IMVI = tested on: LOX IMVI
PC-3 = tested on: PC-3
A549 = tested on: A549
Hs-578T = tested on: Hs-578T
SW-620 = tested on: SW-620

SMILES	GI50 (RPMI-8226)	GI50 (A498)	GI50 (SF-268)	GI50 (MDA-MB-231)	GI50 (UACC-257)	GI50 (UACC-62)	GI50 (SN12C)	GI50 (HCT-116)	GI50 (OVCAR-8)	GI50 (UO-31)	GI50 (HCC 2998)	GI50 (KM12)	GI50 (NCI-H460)	GI50 (HL-60)	GI50 (Malme-3M)	GI50 (LOX IMVI)	GI50 (PC-3)	GI50 (A549)	GI50 (Hs-578T)	GI50 (SW-620)
C/C(=C\COc1cc(O)c2c(c1)C(=O)c1cc(C)cc(O)c1C2=O)CCC1OC1(C)C (stereo not given)	93.8 µM (inactive)	> 100 µM (inactive)	42.3 µM (inactive)	> 100 µM (inactive)	> 100 µM (inactive)	40.3 µM (inactive)	> 100 µM (inactive)	77.8 µM (inactive)	47.9 µM (inactive)	> 100 µM (inactive)	> 100 µM (inactive)	> 100 µM (inactive)	10.3 µM (inactive)	> 10 µM (inactive)	> 100 µM (inactive)	> 100 µM (inactive)	> 100 µM (inactive)	85.5 µM (inactive)	24.1 µM (inactive)	> 10 µM (inactive)
CC(=O)OCC1OC(OCCCOP(=O)(OCCC#N)OCC2OC(n3cnc4c(N)ncnc43)C(OC(=O)c3ccccc3)C2OC(=O)c2ccccc2)C(OC(C)=O)C(OC(C)=O)C1OC(C)=O (stereo not given)	> 64.1 µM (inactive)	> 100 µM (inactive)	> 100 µM (inactive)	> 100 µM (inactive)	> 100 µM (inactive)	> 100 µM (inactive)	> 100 µM (inactive)	> 100 µM (inactive)	> 100 µM (inactive)	> 100 µM (inactive)	> 100 µM (inactive)	> 100 µM (inactive)	> 100 µM (inactive)	> 100 µM (inactive)	1.06 µM (active)	> 100 µM (inactive)	> 100 µM (inactive)	> 100 µM (inactive)	28.7 µM (inactive)	> 100 µM (inactive)
CN(C)C(=O)Nc1cc2c3c(c1)CCCN3CCC2	> 10 µM (inactive)	4.57 µM (inactive)	> 10 µM (inactive)	> 10 µM (inactive)	> 10 µM (inactive)	> 10 µM (inactive)	> 10 µM (inactive)	> 10 µM (inactive)	> 10 µM (inactive)	> 10 µM (inactive)	> 10 µM (inactive)	> 10 µM (inactive)	> 10 µM (inactive)	> 10 µM (inactive)	> 10 µM (inactive)	> 10 µM (inactive)	> 10 µM (inactive)	> 10 µM (inactive)	> 10 µM (inactive)	> 10 µM (inactive)
CCN(CC)c1ccc(/C=C/C2=NN(c3cccc(S(=O)(=O)O)c3)C3(C2)SCC(=O)N3c2nc3ccccc3s2)cc1 (stereo not given)	17.9 µM (inactive)	27.5 µM (inactive)	40.5 µM (inactive)	55.1 µM (inactive)	30.5 µM (inactive)	37.7 µM (inactive)	59 µM (inactive)	45.1 µM (inactive)	33.6 µM (inactive)	29.9 µM (inactive)	35.2 µM (inactive)	23.9 µM (inactive)	36.5 µM (inactive)	24 µM (inactive)	24.7 µM (inactive)	45.6 µM (inactive)	25.8 µM (inactive)	32.7 µM (inactive)	33.3 µM (inactive)	42.9 µM (inactive)
COc1ccc2c(c1)c1c3c(ccc4ncn2c43)N(CCN(C)C)CCN=1	1.48 µM (inactive)	1.42 µM (inactive)	0.836 µM (active)	0.476 µM (active)	1.85 µM (inactive)	1.23 µM (inactive)	0.316 µM (active)	0.298 µM (active)	0.284 µM (active)	0.404 µM (active)	0.422 µM (active)	0.374 µM (active)	0.176 µM (active)	0.333 µM (active)	1.2 µM (inactive)	0.378 µM (active)	0.357 µM (active)	0.359 µM (active)	1.06 µM (active)	0.146 µM (active)
CCOC(=O)c1cc(C2CCN(c3ccccc3)C2=O)c(C(=O)/C=C(/C)O)[nH]1 (stereo not given)	48.9 µM (inactive)	> 100 µM (inactive)	> 100 µM (inactive)	81.5 µM (inactive)	89.1 µM (inactive)	82 µM (inactive)	> 100 µM (inactive)	65.8 µM (inactive)	> 100 µM (inactive)	66.7 µM (inactive)	> 100 µM (inactive)	45.2 µM (inactive)	> 100 µM (inactive)	27.2 µM (inactive)	> 100 µM (inactive)	58.6 µM (inactive)	88.3 µM (inactive)	93.8 µM (inactive)	93.8 µM (inactive)	> 100 µM (inactive)
CCc1nc(N)nc(N)c1-c1ccc(NC)c([N+](=O)[O-])c1	3.72 µM (inactive)	2.43 µM (inactive)	0.815 µM (active)	27.2 µM (inactive)	18 µM (inactive)	0.531 µM (active)	0.91 µM (active)	0.219 µM (active)	0.662 µM (active)	7.93 µM (inactive)	3.56 µM (inactive)	2.76 µM (inactive)	0.15 µM (active)	0.308 µM (active)	24.8 µM (inactive)	0.449 µM (active)	0.804 µM (active)	0.192 µM (active)	23.6 µM (inactive)	0.481 µM (active)
